Values quoted from earlier work as cited in patent publication US20140093564A1, “PHARMACEUTICAL COMPOSITIONS OF COMBINATIONS OF DIPEPTIDYL PEPTIDASE-4 INHIBITORS WITH SIMVASTATIN” (MERCK SHARP & DOHME LTD., priority 2011, published 2014).

Conditions: oral administration, human Type 2 diabetics

Row | Compound | HbA1c levels | fasting glucose | postprandial glucose excursion
1 | N[C@@H](CC(=O)N1CCn2c(nnc2C(F)(F)F)C1)Cc1cc(F)c(F)cc1F [sitagliptin, (2R)-4-oxo-4-[3-(trifluoromethyl)-5,6-dihydro[1,2,4]triazolo[4,3-α]pyrazin-7(8H)-yl]-1-(2,4,5-trifluorophenyl)butan-2-amine] | significantly reduced | reduce | reduce
2 | N#C[C@@H]1CCCN1C(=O)CNC12CC3CC(CC(O)(C3)C1)C2 [vildagliptin, (S)-1-[(3-hydroxy-1-adamantyl)amino]acetyl-2-cyano-pyrrolidine] | significantly reduced | reduce | reduce
